Assay results reported in PubChem BioAssay (NCI).
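Exposure lasted 48 hours, with cells grown in 96-well plates and compounds tested at five concentrations. Abbreviation: GI50, concentration required for 50% inhibition of growth. TGI marks complete inhibition of growth.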

Tests used:
Experiment in all cases: NCI anticancer screen, dose series, 48 h
UACC-62 melanoma = system: UACC-62 melanoma
EKVX NSCLC = system: EKVX NSCLC
A498 renal = system: A498 renal
SF-539 CNS = system: SF-539 CNS
SNB-19 CNS = system: SNB-19 CNS
RPMI-8226 leukemia = system: RPMI-8226 leukemia
LOX IMVI melanoma = system: LOX IMVI melanoma
HL-60(TB) leukemia = system: HL-60(TB) leukemia
CCRF-CEM leukemia = system: CCRF-CEM leukemia
OVCAR-4 ovarian = system: OVCAR-4 ovarian

Compound	GI50 (UACC-62 melanoma) [µM]	TGI (UACC-62 melanoma) [µM]	GI50 (EKVX NSCLC) [µM]	TGI (EKVX NSCLC) [µM]	GI50 (A498 renal) [µM]	TGI (A498 renal) [µM]	GI50 (SF-539 CNS) [µM]	TGI (SF-539 CNS) [µM]	GI50 (SNB-19 CNS) [µM]	TGI (SNB-19 CNS) [µM]	GI50 (RPMI-8226 leukemia) [µM]	TGI (RPMI-8226 leukemia) [µM]	GI50 (LOX IMVI melanoma) [µM]	TGI (LOX IMVI melanoma) [µM]	GI50 (HL-60(TB) leukemia) [µM]	TGI (HL-60(TB) leukemia) [µM]	GI50 (CCRF-CEM leukemia) [µM]	TGI (CCRF-CEM leukemia) [µM]	GI50 (OVCAR-4 ovarian) [µM]	TGI (OVCAR-4 ovarian) [µM]
C#Cc1cccc(Nc2ncnc3ccc(-c4cnc(Cl)c(NS(C)(=O)=O)c4)cc23)c1	0.149	1.07	0.253	1.87	0.0334	0.254	0.302	1.68	0.374	5.7	0.412	2.66	0.281	1.8	0.207	1.27	0.236	28.8	0.762	8.33
N=C1C(c2nc3ccccc3s2)=C(O)CN1c1ccc(Cl)cc1Cl	12	52.9	29.9	85.5	12.5	50.7	7.62	26.7	26.3	80.9	18.9	62.1	14.8	41.2	41.9	> 100	19.2	> 100	18.3	70.2
NCC1OC(n2cnc3c(=O)[nH]c(N)nc32)C(O)C1O (stereo not given)	–	> 100	–	> 100	–	> 100	–	> 100	–	> 100	–	> 63.8	–	> 100	–	> 100	–	> 100	–	> 100
COC1CC2C=CC3C4OC2(/C(C)=C/C(C)C(C(C)O)OC1=O)C3C(O)C(C)C4OC(=O)c1ccc[nH]1 (stereo not given)	–	> 100	–	> 100	–	> 100	–	> 100	–	> 100	–	> 100	–	> 100	–	63.3	–	> 100	–	> 100
O=S(=O)(NCCCNc1cc(-c2cn(-c3ccccc3)nc2-c2cccc(O)c2)ccn1)c1cccc2ccccc12	2.34	8.38	3.99	> 100	1.09	6.62	2.43	20.2	5.1	> 100	1.85	7.89	1.56	3.29	2.7	7.2	3.12	> 100	3.06	> 100
N/C(=N\c1nc2ccccc2s1)NC(=O)Nc1ccccc1Cl	0.125	> 78.9	0.427	> 100	0.0818	0.579	0.0853	0.834	0.201	> 69.5	0.144	9.28	0.144	5.92	0.082	0.688	0.11	> 42.8	2.71	8.53
